Holding throughout (test): growth of human tumour cells (NCI), 48 h
Assay [1] concerns SK-MEL-5.
The test system of assay [2] is NCI-H522.
Assay [3] has as its system SNB-75.
Assay [4] deals with HCC 2998.
The test system of assay [5] is OVCAR-5.
The subject of assay [6] is OVCAR-3.
In assay [7] the test system is HOP-62.
The subject of assay [8] is UACC-257.
Assay [9] deals with UO-31.
Assay [10] deals with OVCAR-8.
For assay [11], the system named is NCI-H460.
Assay [12] relates to HCT-15.
The subject of assay [13] is U-251.
The subject of assay [14] is T47D.
Assay [15] deals with SN12C.
In assay [16] the test system is 786-0.
The subject of assay [17] is MDA-N.
Assay [18] concerns COLO 205.
Assay [19] concerns A498.

The values that follow come from ChEMBL document CHEMBL1201862, “PubChem BioAssay data set” (2004).

Structures are written as SMILES.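 Values below derive from 48-hour exposures of cells grown in 96-well plates, with endpoints linearly interpolated between the two concentrations bracketing the appropriate inhibition level. GI50 marks 50% less growth.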 The source made the active and inactive calls. Cut-off read from the data, not from the text of the source: active = GI50 up to about 1.1 µM and inactive = higher. Some results are limits rather than exact numbers.

As for `O=C1NNC(=O)c2ccccc2SSc2ccccc2C(=O)NNC(=O)c2ccccc2SSc2ccccc21`, the GI50 in [1] was 26.9 µM (inactive); in assay [2] it was 35.5 µM (inactive); in [3] it was 40.1 µM (inactive); in assay [4] it was > 100 µM (inactive); in assay [5] it was 16.9 µM (inactive); in [6], 16.9 µM (inactive). The GI50 in assay [7] is 21.4 µM (inactive); in assay [8], 19.9 µM (inactive); in assay [9], 3.39 µM (inactive); in assay [10], 12.5 µM (inactive); in [11] it was 5.97 µM (inactive); in assay [12], 8.99 µM. The GI50 in assay [13] was 17.3 µM (inactive); in assay [14], 28.8 µM (inactive); in [15], 12.9 µM (inactive); in assay [16] it was 13.5 µM (inactive); in assay [17], 32 µM (inactive); in [18] it was 17.2 µM (inactive).
For the compound `CC1=NN(c2ccccc2)C(=O)C1/N=N/c1ccc(S(N)(=O)=O)cc1` (stereo not given), the GI50 in assay [1], in assay [2], in assay [3], in [19], in [5] and in assay [6] was > 100 µM (inactive) throughout. The GI50 in assay [7] was > 100 µM (inactive); in assay [8], > 100 µM (inactive); in assay [9], > 100 µM (inactive); in assay [10], > 100 µM (inactive); in assay [11] it was > 100 µM (inactive); in [12], more than 100 µM. The GI50 in [13], in [14], in assay [15], in assay [16], in assay [17] and in assay [18] was > 100 µM (inactive) each time.
Consider `O=C(O)c1nnsc1-c1csnn1`, for which the GI50 in assay [1], in [2], in [3], in assay [19], in assay [5] and in assay [6] was > 100 µM (inactive) throughout. Further, the GI50 in [7] is > 100 µM (inactive); in assay [8] it was > 100 µM (inactive); in assay [9] it was > 100 µM (inactive); in assay [10], > 100 µM (inactive); in assay [11] it was > 100 µM (inactive); in [12] it was more than 100 µM. In addition, the GI50 in assay [13], in assay [14], in assay [15], in [16], in [17] and in assay [18] was > 100 µM (inactive) in each case.
Turning to `O=[N+]([O-])c1ccc2nc(=S)[nH]n2c1`, the GI50 in assay [1], in assay [2], in assay [3], in assay [4], in assay [19] and in assay [5] was > 100 µM (inactive) throughout. For the same compound, the GI50 in assay [7] was > 100 µM (inactive); in assay [8], > 100 µM (inactive); in assay [9] it was > 100 µM (inactive); in [10], > 100 µM (inactive); in assay [11], > 100 µM (inactive); in assay [12] it was more than 100 µM. Besides, the GI50 in [13], in [14], in assay [15], in assay [16] and in assay [18] was > 100 µM (inactive) each time.
As to `C[C@H]1C(=O)C2=C[C@H]1CCC(=O)[C@]1(C)CCCC(C)(C)[C@H]1C[C@H]2O`, the GI50 in assay [2] is 0.986 µM (active); in assay [3] it was 16.7 µM (inactive); in assay [19], 12.1 µM (inactive); in assay [5], 25.4 µM (inactive); in assay [6], 29.2 µM (inactive); in [7] it was 97.5 µM (inactive). Also, the GI50 is 32.3 µM (inactive) in [8]; 27.4 µM (inactive) in [9]; 17.5 µM (inactive) in [10]; 21.9 µM (inactive) in assay [11]; 14.3 µM in assay [12]; 15.1 µM (inactive) in assay [13]. For the same compound, the GI50 is 17.6 µM (inactive) in [14]; 26.9 µM (inactive) in assay [15]; 17.1 µM (inactive) in assay [16]; 31.6 µM (inactive) in [17]; 14.3 µM (inactive) in assay [18].
`Nc1ncn2c(n1)nc1ccccc12`: the GI50 in assay [1] is > 100 µM (inactive); in [2], > 100 µM (inactive); in assay [3], 3.51 µM (inactive); in [19], 57 µM (inactive); in assay [5], > 100 µM (inactive); in [8], > 100 µM (inactive). The GI50 in assay [9] is > 100 µM (inactive); in [10], > 100 µM (inactive); in [11], > 100 µM (inactive); in assay [12], more than 100 µM; in assay [13], > 100 µM (inactive); in [14], > 100 µM (inactive). For the same compound, the GI50 in assay [15], in assay [16], in assay [17] and in assay [18] was > 100 µM (inactive) in each case.
Regarding `S=C(Nc1ccccc1)N(Cc1ccccc1)c1ccccc1`, the GI50 in assay [1] was 13.8 µM (inactive); in assay [2], 21 µM (inactive); in assay [3], 22.5 µM (inactive); in assay [4], > 100 µM (inactive); in assay [19], 14.6 µM (inactive); in assay [5], > 100 µM (inactive). Moreover, the GI50 in [6] is 30.2 µM (inactive); in [7], 49.3 µM (inactive); in assay [8] it was 22.4 µM (inactive); in [9] it was 29.3 µM (inactive); in assay [11], 28.6 µM (inactive); in assay [12], 40.4 µM. The GI50 was 42.6 µM (inactive) in assay [13]; 56 µM (inactive) in [14]; 44.1 µM (inactive) in [15]; 74.3 µM (inactive) in assay [16]; 23.3 µM (inactive) in assay [18].
As to `CN(C)/N=N/c1nc2c(c(=O)n(C)c(=O)n2C)n1CC(O)CO` (stereo not given), the GI50 in assay [1], in assay [2], in assay [3], in assay [4], in [5] and in assay [6] was > 100 µM (inactive) each time. The GI50 in assay [7] is > 100 µM (inactive); in [8], > 100 µM (inactive); in assay [9], > 100 µM (inactive); in assay [10] it was > 100 µM (inactive); in [11], > 100 µM (inactive); in assay [12] it was more than 100 µM. In addition, the GI50 is > 100 µM (inactive) in assay [13]; 38.7 µM (inactive) in [14]; > 100 µM (inactive) in [15]; > 100 µM (inactive) in [16]; > 100 µM (inactive) in [17]; > 100 µM (inactive) in assay [18].
Consider `CNc1ncc(-c2nnnn2-c2ccccc2)c(CN(C)C)n1`, for which the GI50 in assay [1], in assay [2], in assay [3], in assay [4], in assay [19] and in assay [5] was > 100 µM (inactive) each time. For the same compound, the GI50 in [6], in assay [7], in assay [8], in assay [9], in assay [10] and in assay [11] was > 100 µM (inactive) each time. Besides, the GI50 in [12] was more than 100 µM; in [13], > 100 µM (inactive); in [14], > 100 µM (inactive); in [15], > 100 µM (inactive); in assay [16], > 100 µM (inactive); in assay [18] it was > 100 µM (inactive).
Consider `Nc1c(-c2nc3ccccc3s2)c2ccc([N+](=O)[O-])cc2c(=O)n1-c1cccc(C(=O)O)c1`, for which the GI50 in assay [1] was 26.7 µM (inactive); in [2], 37.8 µM (inactive); in [3] it was 30.8 µM (inactive); in assay [4], 62.5 µM (inactive); in [8], 20.9 µM (inactive); in [9], 24.1 µM (inactive). Also, the GI50 was 27.7 µM (inactive) in [10]; 27 µM (inactive) in [11]; 27.4 µM in [12]; 23.4 µM (inactive) in assay [13]; 21 µM (inactive) in assay [14]; 30.3 µM (inactive) in assay [15]. For the same compound, the values for the GI50 in [16], in assay [17] and in assay [18] were 31.7 µM (inactive), 45.1 µM (inactive) and 63.5 µM (inactive), respectively.
As for `O=C(NCCCCNCCCNC(=O)c1ccccc1)c1ccccc1`, the GI50 in assay [1], in assay [2], in assay [3], in assay [4], in assay [19] and in assay [5] was > 100 µM (inactive) throughout. Moreover, the GI50 in assay [6], in assay [7], in [8], in assay [9], in [10] and in [11] was > 100 µM (inactive) each time. Further, the GI50 in [12] is more than 100 µM; in assay [13] it was > 100 µM (inactive); in assay [14], > 100 µM (inactive); in assay [15], > 100 µM (inactive); in [16], > 100 µM (inactive); in assay [18] it was > 100 µM (inactive).
Regarding `Clc1ccc(COC(Cn2ccnc2)c2ccc(Cl)cc2Cl)c(Cl)c1` (stereo not given) [MICONAZOLE], the GI50 in [2] was 10 µM (inactive); in assay [4] it was 17.1 µM (inactive); in [5], 17.7 µM (inactive); in assay [6], 12.2 µM (inactive); in assay [7], 13.5 µM (inactive); in [8], 13.6 µM (inactive). The GI50 is 3.82 µM (inactive) in assay [9]; 13.9 µM (inactive) in assay [10]; 17.5 µM (inactive) in assay [11]; 10.8 µM in assay [12]; 11.7 µM (inactive) in [13]; 7.89 µM (inactive) in assay [14]. The GI50 in assay [15] was 13.6 µM (inactive); in assay [16] it was 7.33 µM (inactive); in [17], 4.8 µM (inactive).
